Here are results for one molecule from patent publication US20250152702A1, “EPICHAPEROME INHIBITION TO IMPROVE T CELL RESPONSES” (priority 2023, published 2025).

Data set [1] has as its system acute myeloid leukemia (AML). To be noted: cited from earlier work; for exacerbation of GvHD in the patient: patient with donor T cell chimerism after failed allo-HSCT; for duration of complete remission: single agent, AML patient with high epichaperome abundance, post-transplant relapse.
The next data set relates to activated T cells. In words: Activated human T cells treated with PU-H71: survival and surface phenotype by flow cytometry. In kind it is cell-based. The method, then: FIGS. 2A-2D. Epichaperomes are formed in activated T cells and their disruption impacts T cell activation phenotype but not survival. (A) Resting T cells from healthy donors were assayed for the abundance of epichaperomes by flow cytometry. (B) Purified T cells activated with anti-CD3/CD28 beads were tested for changes in epichaperome abundance 20 h after activation and compared with resting T cells and MV4-11 as a positive control. n=3, One-way ANOVA ** p<0.002, *** p<0.0002 (C, D) T cells were treated with 1 μM PU-H71 upon activation to assess the effect of epichaperome disruption on survival (C) and cell surface phenotype (CD4, CD8, CD25, CD69, HLA-DR) n=3 *p<0.03 two-tailed T-test (D).
Thus, epichaperome formation skews the balance of T cell populations and functions towards an immunosuppressive outcome, a balance that can be restored to a cytotoxic function by epichaperome disruptors. This leads to a role of epichaperome disruptors, such as PU-H71, in CAR T cell cytotoxicity and the ability of epichaperome disruptors, such as, PU-H71, to improve the outcomes of AML patients in the post-transplant setting by improving GvL without affecting GvHD.

Another data set concerns IFNγ-secreting T cells. In words: OVA immunization of mice, OVA-specific T cell response by IFNγ ELISPOT. It counts as in vivo, C57BL/6 mice. The method, then: (§1) FIGS. 3A-3H. Disruption of the epichaperome using PU-H71 improves OVA-specific T cells response and anti-tumor immune response in a mouse model. (A) C57BL/6 (B6) mice were injected intraperitoneally (i.p.) with PU-H71 (75 mg/kg) n=8 or PBS n=8 on days 0, 3 and 7. On day 1, all mice were immunized subcutaneously (s.c.) with 100 μg OVA emulsified in incomplete Freund's adjuvant (IFA), experimental controls shown in schema. Peripheral blood (PB) was collected on days 0, 5 and 9, and the spleen was collected at the end of the experiment, on day 9. (B, C) T cell immunization against OVA was assessed by measuring IFN[…] release from T cells after exposure with OVA using Elispot assay. Two-tailed T test (D) Anti-OVA IgG in serum was assessed by ELISA. (E) B6 mice were immunized with OVA treated with PU-H71 (75 mg/kg) n=8 or PBS n=8 on days 11, 15 and 18. PB and spleen were collected at the end of the experiment, on day 20. (F) T cell immunization against OVA was assessed by measuring IFN[…] by Elispot assay. […] On day 7 after immunization, mice challenged with OVA-expressing EG.7 tumor cells (H) tumor volume was assessed every 2-3 days using calipers. p values shown for day 13 assessment by one-way ANOVA.
(§2) The effects of an epichaperome disrupter, PU-H71, were tested on C57BL/6 mice immune responses to ovalbumin (OVA) immunization. OVA-specific T- and B-cell responses were evaluated by ELISPOT and ELISA, respectively. […]
In vivo: In vivo assessment in immunization model: the well-characterized in vivo immunization model that utilizes chicken ovalbumin (OVA) will be used. […] Antibody production against OVA will be assessed in the peripheral blood (PB) at day 9 to confirm that the immunization took place (40). PU-H71 will be evaluated at different dosing schedules: before OVA administration to assess an effect on priming, shortly after OVA administration to assess an effect on T cell proliferation and polarization, and after the response has been completed (11 days) to evaluate an effect on the already ongoing response (for this cohort, mice will be sacrificed 9 days after PU-H71 treatment). […]

In data set [2] the test system is NALM6 (CD19+ B-ALL cell line). The method, then: FIGS. 7A-7C. […] (A) Schematic representation. CART19/4-1BB or control T cells were cultured with NALM6 (CD19^+ B-ALL cell line) for 18 h at a E:T ratio of 1:1. (B) Cytotoxicity was evaluated by flow cytometry and represented as relative to the number of dead cells in the control cells (no effector cells). Experiment performed in triplicate, Error bar represents the SEM, significance assessed using ANOVA test. (C) In vivo testing.
To better understand its effect on human T cells and its potential adjuvant effect during cellular therapy, in vitro and in vivo chimeric antigen receptor (CAR)-T cell (CAR-T cells) phenotype and function in the presence of PU-H71 was tested. […] Finally, the therapeutic effect of the combination of PU-H71 and CART19 was evaluated in a B-ALL NSG mouse model using NALM6-BLIV cells, with bioluminescence imaging and flow cytometry (CART19 and leukemic cells) monitoring.
To investigate the impact of epichaperome disruption on CAR T cells, CART19/4-1BB was generated and tested. […] Subsequently, the impact of epichaperome disruption on the function of CART19/4-1BB cells was assessed during co-culture with leukemia cells expressing CD19. The cytotoxic effect of CART19/4-1BB cells against Nalm-6 (CD19^+ B-ALL cell line) was measured with or without 1 μM PU-H71 (FIG. 7).

For data set [3], the system named is E.G7 (OVA+) lymphoma cells. Briefly: Anti-tumor response in OVA-immunized mice challenged with E.G7 lymphoma. It counts as in vivo, C57BL/6 mice. The method, then: as §1, with “ANOVA. […]” for “ANOVA.”
In vivo assessment in an anti-tumor response model: E.G7 cells are OVA-expressing cells derived from the C57BL/6 (H-2b) mouse lymphoma cell line EL4, allowing for the establishment of a syngeneic lymphoma mouse model to evaluate anti-tumor protection after OVA immunization (39). […] At day 7 after immunization, lymphoma cells will be injected subcutaneously into the mice, and tumor growth will be evaluated twice a week using micro calipers. Tumor volume will be determined as mm^3=length×width^2 (41). Survival will be also determined as an endpoint (mice will be euthanized when tumor size reaches 2000 mm^3 or the animals lose more than 10% of weight). Differences in tumor growth and survival will be determined in mice immunized with OVA and PU-H71 compared to the controls OVA+IFA or no immunization. […]

The next data set concerns Hsp90. The following applies: cited from earlier work.
The test system of another data set is anti-OVA IgG. In words: OVA immunization of mice, anti-OVA antibody by ELISA. In kind it is in vivo, C57BL/6 mice. To be noted: PU-H71 at the time of priming. As to the method: as §1, with “PB and spleen were collected at the end of the experiment, on day 20.” left out
as §2

Another data set has as its system NALM6-BLIV cells. In words: B-ALL NSG mouse model with NALM6-BLIV cells, PU-H71 combined with CART19. In kind it is in vivo. As to the method: Nalm-6 xenograft: Xenografts will be initiated using CD19^+ B-cell acute lymphoblastic leukemia (B-ALL), Nalm-6 cells expressing luciferase and GFP (BLIV/GFP) transplanted into NSG mice (59). Anti-CD19 CAR T cells (CART19/4-1BB) or non-transduced T cells (NTC) will be administered once engraftment is confirmed by bioluminescence and flow cytometry. Four treatment cohorts will be studied: (1) saline, (2) PU-H71 (75 mg/kg i.p. bi-weekly), (3) CART19/4-1BB, (4) PU-H71 (75 mg/kgi.p. bi-weekly)+CART19/4-1BB. Each cohort will consist of 8 mice, ensuring >80% power at two-sided alpha of 0.05 to detect a standardized effect size of 1.6 in tumor burden and immune cell modulation, and will include both male and female mice. The PU-H71 dose and schedule will be determined based on data (9, 17). Tumor progression will be monitored weekly using bioluminescence imaging, with CAR T cell percentage and phenotype assessed in PB from day 2 onwards and every subsequent week, as published previously (17, 59). Bone marrow (BM) aspirates on day 14 will assess tumor burden and CAR T persistence. At the endpoint, the spleen, BM, and PB will be harvested to determine leukemia burden and CAR T cell phenotype.

SMILES strings stand for the structures. Entries after “also recorded” stand apart in the source; their conditions may differ. Where two headings read alike, the source gives them in different places.

On to `CC(C)NCCCn1c(Sc2cc3c(cc2I)OCO3)nc2c(N)ncnc21` [PU-H71, 8-[(6-iodo-1,3-benzodioxol-5-yl)sulfanyl]-9-[3-(propan-2-ylamino)propyl]purin-6-amine], for which the “myelosuppression and drug-related toxicities” value in data set [1] (patient treated for >5 yrs) is “without significant myelosuppression or drug-related extramedullary toxicities”. Moreover, in data set [1], the “exacerbation of GvHD in the patient” value was “did not exacerbate GvHD; also recorded: did not exacerbate these symptoms” and the “duration of complete remission” value was “over five years”. Besides, in data set [1] (listed as Zelavespib), the “exacerbation of GvHD in the patient” value is on record as “without exacerbation of GvHD” and the “duration of complete remission” value is recorded as > 5 years. In data set [1] (listed as zelavespib), the “exacerbation of GvHD in the patient” value is reported as “no clinically relevant exacerbation” and the “duration of complete remission” value is “over 5 years”. Moreover, in data set [1] (single AML patient), the “time to complete remission (CR)” value was ≤ 45 days. In the data set on activated T cells (1 μM PU-H71 upon activation), the “CD4 to CD8 ratio” value is given as “increase of CD8^+ cells; also recorded: skewed towards more CD8^+ cells” and the “expression of activation marker CD69” value is “not significantly changed”. Further, the “viability of activated T cells” value in the data set with activated T cells (1 μM PU-H71 upon activation with anti-CD3/CD28 beads) was “no detrimental effect”. Further, the “number of IFNγ-secreting T cells (median)” value in the data set with IFNγ-secreting T cells (PU-H71 75 mg/kg i.p. at the time of priming, OVA immunization, ELISPOT, n=8, controls 42, p=0.0002) is given as 126 per million of cells. In addition, in the data set on IFNγ-secreting T cells (PU-H71 administered once the OVA-specific T cell response was ongoing), the “effect on OVA-specific T cell response” value is on record as “no effect”. For the same molecule, the “impact on T cell phenotype” value in the data set on IFNγ-secreting T cells (PU-H71 at the time of priming) is “without overt impact; also recorded: without an impact”. Besides, the “in vitro cytotoxicity of CAR-T cells toward NALM6 B-ALL cells” value in data set [2] stood at 74.66%. Moreover, the “in vivo anti-tumor immune response / tumor progression” value in data set [3] (OVA-primed mice plus PU-H71, E.G7 challenge) is reported as “significantly decreases tumor progression; also recorded: improved in vivo anti-tumor immune responses”. For the same molecule, the “ability to control tumor progression” value in data set [3] (PU-H71 without immunization, n=6) came to 16 days. Also, the “ability to control tumor progression” value in data set [3] (mice immunized against OVA without IFA and treated with PU-H71, OVA alone 16 days, saline 14 days, n=8) was determined as 18 days. In the data set with Hsp90, the “binding preference for Hsp90 form” value is listed as “preferential binding to Hsp90 when it is in the highly integrated complexed form that is the epichaperome”. The “impact on anti-OVA antibody levels” value in the data set on anti-OVA IgG was “without overt impact; also recorded: without an impact”. Further, in the data set with NALM6-BLIV cells, the “CART19 numbers in the bone marrow” value was “increases CART19 numbers in the bone marrow” and the “in vivo antitumor efficacy of CART19 against NALM6” value is reported as “improves their in vivo antitumor efficacy”.
